Converted amounts (≈) assume the structure as drawn.
Tests used:
Type in all cases: functional
[1] = system: Candida albicans; test: Antifungal activity against Candida albicans SC 5314 assessed as inhibition of visible growth
[2] = system: Candida albicans; test: Antifungal activity against Candida albicans CPCC 400616 assessed as inhibition of visible growth
[3] = system: Candida tropicalis; test: Antifungal activity against Candida tropicalis CGMCC 2.3739 assessed as inhibition of visible growth
[4] = system: Candida parapsilosis; test: Antifungal activity against Candida parapsilosis GIM 2.190 assessed as inhibition of visible growth; settings: Lodderomyces parapsilosis
[5] = system: Nakaseomyces glabratus; test: Antifungal activity against Clinical isolate Candida glabrata assessed as inhibition of visible growth
[6] = system: Pichia kudriavzevii; test: Antifungal activity against Candida krusei AS 2.1045 assessed as inhibition of visible growth
[7] = system: Cryptococcus neoformans; test: Antifungal activity against Cryptococcus neoformans CGMCC 2.3161 assessed as inhibition of visible growth

MIC80 [1] [µg/mL]	MIC80 [2] [µg/mL]	MIC80 [3] [µg/mL]	MIC80 [4] [µg/mL]	MIC80 [5] [µg/mL]	MIC80 [6] [µg/mL]	MIC80 [7] [µg/mL]	Compound
0.025 (≈ 0.0491 µM)	0.025 (≈ 0.0491 µM)	0.006 (≈ 0.0118 µM)	0.05 (≈ 0.0981 µM)	0.2 (≈ 0.393 µM)	0.2 (≈ 0.393 µM)	0.4 (≈ 0.785 µM)	CN(Cc1cnc(-c2ccc(C(F)(F)F)cc2)s1)CC(O)(Cn1cncn1)c1ccc(F)cc1F (stereo unspecified)
0.006 (≈ 0.0123 µM)	0.006 (≈ 0.0123 µM)	0.006 (≈ 0.0123 µM)	0.006 (≈ 0.0123 µM)	0.025 (≈ 0.0513 µM)	0.012 (≈ 0.0246 µM)	0.012 (≈ 0.0246 µM)	CN(Cc1ccc(-c2ccc(Cl)c(F)c2)cc1)CC(O)(Cn1cncn1)c1ccc(F)cc1F (stereo unspecified)
0.012 (≈ 0.0244 µM)	0.025 (≈ 0.0509 µM)	0.006 (≈ 0.0122 µM)	0.012 (≈ 0.0244 µM)	0.2 (≈ 0.407 µM)	0.1 (≈ 0.203 µM)	0.012 (≈ 0.0244 µM)	CN(Cc1ccc(-c2ccc(C(C)(C)C)cc2)cn1)CC(O)(Cn1cncn1)c1ccc(F)cc1F (stereo unspecified)
0.025 (≈ 0.0539 µM)	0.012 (≈ 0.0259 µM)	0.012 (≈ 0.0259 µM)	0.012 (≈ 0.0259 µM)	0.1 (≈ 0.216 µM)	0.05 (≈ 0.108 µM)	0.025 (≈ 0.0539 µM)	CCc1ccc(-c2ccc(CN(C)CC(O)(Cn3cncn3)c3ccc(F)cc3F)nc2)cc1 (stereo unspecified)
0.012 (≈ 0.0261 µM)	0.012 (≈ 0.0261 µM)	0.012 (≈ 0.0261 µM)	0.1 (≈ 0.217 µM)	1.6 (≈ 3.47 µM)	0.2 (≈ 0.434 µM)	0.8 (≈ 1.74 µM)	CN(Cc1ccc(-c2ccc(C#N)cc2)cn1)CC(O)(Cn1cncn1)c1ccc(F)cc1F (stereo unspecified)
0.012 (≈ 0.0258 µM)	0.012 (≈ 0.0258 µM)	0.012 (≈ 0.0258 µM)	0.025 (≈ 0.0537 µM)	0.4 (≈ 0.859 µM)	0.1 (≈ 0.215 µM)	0.4 (≈ 0.859 µM)	COc1ccc(-c2ccc(CN(C)CC(O)(Cn3cncn3)c3ccc(F)cc3F)nc2)cc1 (stereo unspecified)
0.012 (≈ 0.0231 µM)	0.012 (≈ 0.0231 µM)	0.025 (≈ 0.0481 µM)	0.006 (≈ 0.0116 µM)	0.05 (≈ 0.0963 µM)	0.025 (≈ 0.0481 µM)	0.05 (≈ 0.0963 µM)	CN(Cc1ccc(-c2ccc(OC(F)(F)F)cc2)nc1)CC(O)(Cn1cncn1)c1ccc(F)cc1F (stereo unspecified)
0.25 (≈ 0.556 µM)	0.012 (≈ 0.0267 µM)	0.012 (≈ 0.0267 µM)	0.1 (≈ 0.222 µM)	1.6 (≈ 3.56 µM)	0.2 (≈ 0.445 µM)	0.8 (≈ 1.78 µM)	Cc1ccc(-c2ccc(CN(C)CC(O)(Cn3cncn3)c3ccc(F)cc3F)nc2)cc1 (stereo unspecified)
0.012 (≈ 0.0225 µM)	0.012 (≈ 0.0225 µM)	0.012 (≈ 0.0225 µM)	0.012 (≈ 0.0225 µM)	0.1 (≈ 0.187 µM)	0.05 (≈ 0.0937 µM)	0.1 (≈ 0.187 µM)	CN(Cc1ccc(-c2ccc(OCC(F)(F)F)cc2)cn1)CC(O)(Cn1cncn1)c1ccc(F)cc1F (stereo unspecified)
0.025 (≈ 0.0492 µM)	0.012 (≈ 0.0236 µM)	0.012 (≈ 0.0236 µM)	0.05 (≈ 0.0983 µM)	0.1 (≈ 0.197 µM)	0.1 (≈ 0.197 µM)	0.2 (≈ 0.393 µM)	CN(Cc1ccc(-c2ccc(OC(F)(F)F)cc2)o1)CC(O)(Cn1cncn1)c1ccc(F)cc1F (stereo unspecified)
0.012 (≈ 0.0231 µM)	0.012 (≈ 0.0231 µM)	0.012 (≈ 0.0231 µM)	0.006 (≈ 0.0116 µM)	0.05 (≈ 0.0963 µM)	0.025 (≈ 0.0481 µM)	0.025 (≈ 0.0481 µM)	CN(Cc1ccc(-c2ccc(OC(F)(F)F)cc2)cn1)CC(O)(Cn1cncn1)c1ccc(F)cc1F (stereo unspecified)
0.025 (≈ 0.0508 µM)	0.025 (≈ 0.0508 µM)	0.012 (≈ 0.0244 µM)	0.05 (≈ 0.102 µM)	0.2 (≈ 0.406 µM)	0.2 (≈ 0.406 µM)	0.4 (≈ 0.812 µM)	CN(Cc1ccc(-c2ccc(C(F)(F)F)cc2)o1)CC(O)(Cn1cncn1)c1ccc(F)cc1F (stereo unspecified)
0.025 (≈ 0.055 µM)	0.025 (≈ 0.055 µM)	0.025 (≈ 0.055 µM)	0.025 (≈ 0.055 µM)	0.05 (≈ 0.11 µM)	0.05 (≈ 0.11 µM)	0.05 (≈ 0.11 µM)	OC(CNCc1ccc(-c2ccc(Cl)cc2)cc1)(Cn1cncn1)c1ccc(F)cc1F (stereo unspecified)
0.012 (≈ 0.0238 µM)	0.012 (≈ 0.0238 µM)	0.012 (≈ 0.0238 µM)	0.006 (≈ 0.0119 µM)	0.2 (≈ 0.397 µM)	0.025 (≈ 0.0497 µM)	0.025 (≈ 0.0497 µM)	CN(Cc1ccc(-c2ccc(C(F)(F)F)cc2)nc1)CC(O)(Cn1cncn1)c1ccc(F)cc1F (stereo unspecified)
0.012 (≈ 0.0255 µM)	0.012 (≈ 0.0255 µM)	0.012 (≈ 0.0255 µM)	0.012 (≈ 0.0255 µM)	0.2 (≈ 0.426 µM)	0.1 (≈ 0.213 µM)	0.025 (≈ 0.0532 µM)	CN(Cc1ccc(-c2cccc(Cl)c2)cn1)CC(O)(Cn1cncn1)c1ccc(F)cc1F (stereo unspecified)
0.012 (≈ 0.0238 µM)	0.012 (≈ 0.0238 µM)	0.012 (≈ 0.0238 µM)	0.006 (≈ 0.0119 µM)	0.05 (≈ 0.0993 µM)	0.05 (≈ 0.0993 µM)	0.025 (≈ 0.0497 µM)	CN(Cc1ccc(-c2ccc(C(F)(F)F)cc2)cn1)CC(O)(Cn1cncn1)c1ccc(F)cc1F (stereo unspecified)
0.012 (≈ 0.0228 µM)	0.025 (≈ 0.0476 µM)	0.025 (≈ 0.0476 µM)	0.025 (≈ 0.0476 µM)	0.4 (≈ 0.761 µM)	0.2 (≈ 0.381 µM)	0.1 (≈ 0.19 µM)	CN(Cc1nc(-c2ccc(OC(F)(F)F)cc2)cs1)CC(O)(Cn1cncn1)c1ccc(F)cc1F (stereo unspecified)
0.012 (≈ 0.0236 µM)	0.025 (≈ 0.0491 µM)	0.025 (≈ 0.0491 µM)	0.012 (≈ 0.0236 µM)	3.2 (≈ 6.28 µM)	0.8 (≈ 1.57 µM)	0.2 (≈ 0.393 µM)	CN(Cc1nc(-c2ccc(C(F)(F)F)cc2)cs1)CC(O)(Cn1cncn1)c1ccc(F)cc1F (stereo unspecified)

From ChEMBL document CHEMBL6182926, “Design, Synthesis, and Biological Activity Evaluation of Deuterated Diphenyl Azole Alcohol-Based CYP51 Inhibitors” (J Med Chem, 2025)
